Measurements as given in patent publication US20120225054A1, “USE OF LEGUME EXTRACTS FOR INDUCING AND ENHANCING AUTOPHAGY AND APOPTOSIS AND FOR PREVENTING AND/OR TREATING CANCERS” (HERBAL BON BIOTECH INC., priority 2011, published 2012).

Experiments:
[1] = tested on: murine hepatoma ML-1 cells; assay: Flow cytometric analysis of apoptotic cells with autophagy inhibitor, ML-1; format: cell-based; settings: 10 mM 3-MA pretreatment 2 h, SC-1 265 μg/ml
Experimental: Murine ML-1 cells obtained from Dr. Huan-Yao Lei (Department of Microbiology and Immunology, Medical College, National Cheng Kung University, Tainan, Taiwan) were cultured in complete Dulbecco's modified Eagle medium (DMEM; GIBCO BRL, Grand Island, N.Y.) containing 10% fetal bovine serum (GIBCO BRL), 2 mM glutamine (Sigma, St. Louis, Mo.), 100 U/ml penicillin (Sigma), and 100 μg/ml streptomycin (Sigma) at 37° C. in a 5% CO2 humidified atmosphere.
(§1) Cells (2×10^5) grown in 6-well plates were pretreated with or without 10 mM of autophagy inhibitor 3-methyladenine (3-MA; Sigma, St. Louis, Mo.) for 2 h prior to the addition of SC-1 (265 μg/ml). The cells were harvested, centrifuged at 800g for 10 min at 4° C., and resuspended in HBS containing 40 μg/ml of propidium iodide and […] RNase A for 30 min at 37° C. in the dark. Measurement of apoptotic cells was performed using a FACScan flow cytometer (Becton Dickison, Mountain View, Calif., USA).
To confirm the importance of autophagy in the proceeding of apoptosis, autophagy inhibitor 3-MA was added to the cell culture and the relative portion of apoptotic cells was analyzed by flow cytometry. […] In FIG. 5B, it inhibited the fermented soybean extracts-induced apoptosis of Hep 3B cells approximately 42% at 48 h and 60% at 72 h. […]

human HCC Hep 3B cells = assay: Flow cytometric analysis of apoptotic cells with autophagy inhibitor, Hep 3B; format: cell-based; settings: 10 mM 3-MA pretreatment 2 h, SC-1 265 μg/ml
Experimental: as §1
To confirm the importance of autophagy in the proceeding of apoptosis, autophagy inhibitor 3-MA was added to the cell culture and the relative portion of apoptotic cells was analyzed by flow cytometry. […] In FIG. 5B, it inhibited the fermented soybean extracts-induced apoptosis of Hep 3B cells approximately 42% at 48 h and 60% at 72 h. Therefore, it would not be surprised that the induction of apoptosis was observed only in combination with autophagy in tumors obtained from the mice received the fermented soybean extracts for a relatively long period of time (FIGS. 4A and B).

With Cn1cnc(N)c2ncnc1-2 [3-MA, 3-methyladenine] the “inhibition of fermented soybean extracts-induced apoptosis” value (“inhibition” below) ([1]; 48 h) was “approximately 45%”, the “inhibition” value ([1]; 72 h) was ~52% and the “inhibition” value (human HCC Hep 3B cells; 48 h) was “approximately 42%”. For the same molecule, the “inhibition” value (human HCC Hep 3B cells; 72 h) was ~60%.
